Assay results from patent publication US20220372040A1, “METTL3 MODULATORS” (Accent Therapeutics, Inc., priority 2020, published 2022).

Key:
METTL3/METTL14 = METTL3/METTL14 (Homo sapiens, UniProt Q86U44); test: METTL3-14 standard enzyme assay (3H-SAM flashplate scintillation); type: biochemical; details: METTL3/METTL14 2.5 nM, RNA 100 nM, 3H-SAM 100 nM, 30 min
Method: METTL3-14 Standard Enzyme Assay
Assays were performed in a 25 μl-volume in 384-well V-bottom polypropylene microplates (Greiner Bio-One, cat. No. 781280) at ambient temperature. Optimized 1× assay buffer was 20 mM HEPES pH 7.5, 50 mM KCl, 250 μM MgCl2, 1 mM DTT, 0.01% Tween, 0.01% BSG, 0.004 U/μl RNAseOUT (cat. No. 10777019, ThermoFisher Scientific, Waltham, Mass.). For compound screening METTL3/METTL14 (final concentration, f.c.=2.5 nM) was added using a Multidrop Combi (ThermoFisher Scientific, Waltham, Mass.) and preincubated for 5 min. Reactions were started by adding 3′ biotinylated RNA (UCUGGACUAAA-biotin) (f.c.=100 nM) and 3H-SAM (f.c.=100 nM) substrates. Reactions proceeded for 30 minutes and were quenched with excess non-radioactive SAM (f.c.=15 μM). The reactions were then transferred to streptavidin-coated flashplates and incubated for 2 hours at 25° C. Following two washing cycles with 0.1% Tween-20, the plates were sealed and read on a TopCount (PerkinElmer, Waltham, Mass.) plate-based scintillation counter. For determination of kinetic parameters, reaction times were optimized so that measurements were taken during the initial velocity phase of the reaction.

PRMT5-MEP50 = PRMT5-MEP50 (Homo sapiens, UniProt O14744); test: PRMT5 assay (3H-SAM flashplate scintillation); type: biochemical; details: PRMT5-MEP50 2.5 nM, histone H4 peptide 100 nM, 3H-SAM 250 nM, 60 min
Method: Assays were performed in a 25 μl-volume in 384-well V-bottom polypropylene microplates (Greiner Bio-One, cat. No. 781280) at ambient temperature. Optimized 1× assay buffer was 20 mM Tris-HCl pH 8.0, 1 mM DTT, […]. For compound screening PRMT5-MEP50 (final concentration, f.c.=2.5 nM) was added using a Multidrop Combi (ThermoFisher Scientific, Waltham, Mass.) and preincubated for 5 min. Reactions were started by adding 3′ biotinylated histone H4 peptide acetylated on serine 1 (Ac-[…]-Biotin) (f.c.=100 nM) and 3H-SAM (f.c.=250 nM) substrates. Reactions proceeded for 60 minutes and were quenched with excess non-radioactive SAM (f.c.=15 μM). The reactions were then transferred to streptavidin-coated flashplates and incubated for 2 hours at 25° C. Following two washing cycles with 0.1% Tween-20, the plates were sealed and read on a TopCount (PerkinElmer, Waltham, Mass.) plate-based scintillation counter. For determination of kinetic parameters, reaction times were optimized so that measurements were taken during the initial velocity phase of the reaction.

Chain of PRMT5-MEP50 (O14744 whole entry): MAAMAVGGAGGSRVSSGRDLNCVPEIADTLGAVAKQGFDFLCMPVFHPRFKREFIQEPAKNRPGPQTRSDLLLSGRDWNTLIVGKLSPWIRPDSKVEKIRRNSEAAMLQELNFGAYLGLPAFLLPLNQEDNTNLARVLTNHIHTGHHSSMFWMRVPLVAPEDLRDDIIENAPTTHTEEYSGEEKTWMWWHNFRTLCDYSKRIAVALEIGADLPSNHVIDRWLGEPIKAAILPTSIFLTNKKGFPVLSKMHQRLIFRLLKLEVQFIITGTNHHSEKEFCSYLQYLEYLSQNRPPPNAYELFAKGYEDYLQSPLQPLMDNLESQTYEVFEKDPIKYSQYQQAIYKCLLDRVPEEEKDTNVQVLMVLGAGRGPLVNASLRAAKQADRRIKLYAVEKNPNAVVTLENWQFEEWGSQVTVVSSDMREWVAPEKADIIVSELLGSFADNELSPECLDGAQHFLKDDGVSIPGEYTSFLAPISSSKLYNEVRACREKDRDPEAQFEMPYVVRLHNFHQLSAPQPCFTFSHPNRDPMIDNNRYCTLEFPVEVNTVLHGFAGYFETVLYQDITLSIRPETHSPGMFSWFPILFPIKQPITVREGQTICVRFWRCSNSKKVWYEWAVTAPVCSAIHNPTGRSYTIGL
Chain of PRMT5-MEP50 (Q9BQA1 whole entry partner): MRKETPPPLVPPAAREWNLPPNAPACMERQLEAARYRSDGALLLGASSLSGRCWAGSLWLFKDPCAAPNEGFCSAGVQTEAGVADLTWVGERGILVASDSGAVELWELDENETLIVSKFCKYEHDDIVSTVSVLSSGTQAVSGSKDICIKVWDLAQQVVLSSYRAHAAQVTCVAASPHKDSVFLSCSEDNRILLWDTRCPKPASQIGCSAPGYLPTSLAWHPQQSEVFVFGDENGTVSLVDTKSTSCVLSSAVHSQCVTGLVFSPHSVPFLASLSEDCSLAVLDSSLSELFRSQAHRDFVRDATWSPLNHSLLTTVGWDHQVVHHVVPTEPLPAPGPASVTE
Chain of METTL3/METTL14 (Q86U44 whole entry, species assumed): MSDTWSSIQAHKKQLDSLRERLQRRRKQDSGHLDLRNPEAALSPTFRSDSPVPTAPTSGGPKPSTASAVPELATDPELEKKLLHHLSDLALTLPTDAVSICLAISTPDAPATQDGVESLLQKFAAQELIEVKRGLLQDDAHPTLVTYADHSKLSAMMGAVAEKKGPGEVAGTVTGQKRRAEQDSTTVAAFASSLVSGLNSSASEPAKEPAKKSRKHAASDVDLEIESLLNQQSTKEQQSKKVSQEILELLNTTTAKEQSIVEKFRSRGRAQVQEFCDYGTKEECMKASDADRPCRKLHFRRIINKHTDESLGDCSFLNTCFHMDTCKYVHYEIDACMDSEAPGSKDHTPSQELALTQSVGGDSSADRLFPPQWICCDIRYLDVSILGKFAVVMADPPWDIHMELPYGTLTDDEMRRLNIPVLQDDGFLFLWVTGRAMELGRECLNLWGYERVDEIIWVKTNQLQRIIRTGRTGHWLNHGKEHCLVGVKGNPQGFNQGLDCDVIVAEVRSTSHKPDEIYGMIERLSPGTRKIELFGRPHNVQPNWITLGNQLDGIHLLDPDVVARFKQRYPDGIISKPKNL
Chain of METTL3/METTL14 (Q9HCE5 whole entry partner, species assumed): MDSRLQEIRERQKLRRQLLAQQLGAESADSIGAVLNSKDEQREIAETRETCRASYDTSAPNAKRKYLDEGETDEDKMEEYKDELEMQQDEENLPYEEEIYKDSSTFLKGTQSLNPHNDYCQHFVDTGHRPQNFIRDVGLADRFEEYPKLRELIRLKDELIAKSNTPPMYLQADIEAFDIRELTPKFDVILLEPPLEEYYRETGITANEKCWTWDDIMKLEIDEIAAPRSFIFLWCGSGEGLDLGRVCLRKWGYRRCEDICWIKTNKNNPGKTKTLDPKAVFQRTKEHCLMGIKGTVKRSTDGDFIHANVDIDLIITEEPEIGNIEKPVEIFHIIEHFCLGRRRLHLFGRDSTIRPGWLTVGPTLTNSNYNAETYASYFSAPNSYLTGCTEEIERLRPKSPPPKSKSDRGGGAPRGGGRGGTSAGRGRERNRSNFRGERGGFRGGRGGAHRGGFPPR

| SMILES | IC50 (METTL3/METTL14) [nM] | IC50 (PRMT5-MEP50) [nM] |
| --- | --- | --- |
| Cn1ccc(-c2cn(-c3cncc(COc4ccc(CN5CCC(CO)CC5)c(N)c4)c3)c3ncnc(N)c23)n1 [Compound I-200] | 100 to 1000 | > 1000 |
| Cn1ccc(-c2cn(-c3cncc(COc4ccc5ccc(N6CCCC6=O)nc5c4)c3)c3ncnc(N)c23)n1 [Compound I-195] | > 1000 | > 1000 |
| Nc1ncnc2c1c(C1CCCO1)cn2-c1cncc(COc2cnc3ccc(N4CCC4)nc3c2)c1 (centres unmarked) [Compound I-207] | > 1000 | > 1000 |
| Cn1ccc(-c2cn(-c3cncc(COc4ccc(C(=O)N5CCC(F)(F)CC5)c(N)c4)c3)c3ncnc(N)c23)n1 [Compound I-186] | > 1000 | > 1000 |
| CN1CCN(c2ccc3ccc(OCc4cncc(-n5cc(-c6ccn(C)n6)c6c(N)ncnc65)c4)cc3n2)CC1 [Compound I-204] | 100 to 1000 | > 1000 |
| CCc1cc(NCCOC)c2c(F)cc(OCc3cncc(-n4cc(C5CCCO5)c5c(N)ncnc54)n3)cc2n1 (centres unmarked) [Compound I-172] | > 1000 | > 1000 |
| CC(=O)NC1CN(c2ccc3ccc(OCc4cncc(-n5cc(-c6ccn(C)n6)c6c(N)ncnc65)c4)cc3n2)C1 [Compound I-202] | 10 to 100 | > 1000 |
| Cn1ccc(-c2cn(-c3cncc(COc4ccc5ccc(N6CC7(CCC7)C6)nc5c4)c3)c3ncnc(N)c23)n1 [Compound I-194] | 100 to 1000 | > 1000 |
| COc1ccccc1-c1cn(-c2cncc(COc3ccc4ccc(N5CCC5)nc4c3)c2)c2ncncc12 [Compound I-184] | > 1000 | > 1000 |
| CCc1cc(N(C)C2CC2)c2ccc(OCc3cncc(-n4cc([C@@H]5CCCO5)c5c(N)ncnc54)n3)cc2n1 [Compound I-174] | 10 to 100 | > 1000 |
| CCc1cc(N2CCC2)nc2cc(F)cc(OCc3cncc(-n4cc(C5CCCO5)c5c(N)ncnc54)c3)c12 (centres unmarked) [Compound I-198] | > 1000 | > 1000 |
| Cn1ccc(-c2cn(-c3cncc(COc4ccc(C(=O)N5CCOCC5)c(N)c4)c3)c3ncnc(N)c23)n1 [Compound I-178] | > 1000 | > 1000 |
| CN(CCO)C(=O)c1ccc(OCc2cncc(-n3cc(-c4ccn(C)n4)c4c(N)ncnc43)c2)cc1N [Compound I-209] | > 1000 | > 1000 |
| Cn1ccc(-c2cn(-c3cncc(COc4ccc5ccc(C6CCOCC6)nc5c4)c3)c3ncnc(N)c23)n1 [Compound I-189] | 100 to 1000 | > 1000 |
| Cn1ccc(-c2cn(-c3cncc(COc4cc(F)c5ccc(N6CCC6)nc5c4)c3)c3ncnc(N)c23)n1 [Compound I-208] | 10 to 100 | > 1000 |
| Cn1ccc(-c2cn(-c3cncc(COc4ccc5ccc(N6CCC(F)(F)CC6)nc5c4)c3)c3ncnc(N)c23)n1 [Compound I-197] | 100 to 1000 | > 1000 |
| Cc1cc(NCCN(C)CCCCCc2ccccc2)c2ccc(OCc3cncc(-n4ccc5c(N)ncnc54)c3)cc2n1 [Compound I-103] | 10 to 100 | > 1000 |
| Cc1cc(NCCN(C)CCCCc2ccccc2)c2ccc(OCc3cncc(-n4ccc5c(N)ncnc54)c3)cc2n1 [Compound I-102] | 10 to 100 | > 1000 |
| CN(C)CCNC(=O)c1ccc(OCc2cncc(-n3ccc4c(N)ncnc43)c2)cc1N [Compound I-216] | > 1000 | > 1000 |
| Cn1ccc(-c2cn(-c3cncc(COC(=O)Nc4cccc(N5CCC5)n4)c3)c3ncnc(N)c23)n1 [Compound I-224, {5-[4-amino-5-(1-methyl-1H-pyrazol-3-yl)-7H-pyrrolo[2,3-d]pyrimidin-7-yl]pyridin-3-yl}methyl N-[6-(azetidin-1-yl)pyridin-2-yl]carbamate] | > 1000 | > 1000 |
| Cn1ccc(-c2cn(-c3cncc(COc4ccc5ccc(N6CC7(COC7)C6)nc5c4)c3)c3ncnc(N)c23)n1 [Compound I-201] | 100 to 1000 | > 1000 |
| CCc1ccc2ccc(OCc3cncc(-n4cc(-c5ccn(C)n5)c5c(N)ncnc54)c3)cc2n1 [Compound I-180] | 10 to 100 | > 1000 |

| SMILES | IC50 (METTL3/METTL14) [nM] | IC50 (PRMT5-MEP50) [nM] |
| --- | --- | --- |
| Cn1ccc(-c2cn(-c3cncc(COc4ccc5ccc(N6CCC6=O)nc5c4)c3)c3ncnc(N)c23)n1 [Compound I-188] | > 1000 | > 1000 |
| C[S+]([O-])c1cn(-c2cncc(COc3ccc4ccc(N5CCC5)nc4c3)c2)c2ncnc(N)c12 (centres unmarked) [Compound I-173] | 100 to 1000 | > 1000 |
| CC(C)c1cc(N)c2ccc(OCc3cncc(-c4c[nH]c5c(N)ncnc45)c3)cc2n1 [Compound I-101] | < 10 | > 1000 |
| Cn1ccc(-c2cn(-c3cncc(CS(=O)(=O)c4ccc5ccc(N6CCC6)nc5c4)c3)c3ncnc(N)c23)n1 [Compound I-220, 7-[5-({[2-(azetidin-1-yl)quinolin-7-yl]sulfonyl}methyl)pyridin-3-yl]-5-(1-methyl-1H-pyrazol-3-yl)-7H-pyrrolo[2,3-d]pyrimidin-4-amine] | > 1000 | > 1000 |
| Cn1ccc(-c2cn(-c3cncc(COc4ccc5cnc(N6CCC6)nc5c4)c3)c3ncnc(N)c23)n1 [Compound I-183] | > 1000 | > 1000 |
| CCc1cc(N2CCC2)nc2cc(OCc3cncc(-n4cc(C5CCCO5)c5c(N)ncnc54)c3)cc(F)c12 (centres unmarked) [Compound I-199] | > 1000 | > 1000 |
| Nc1cc(OCc2cncc(-n3ccc4c(N)ncnc43)c2)ccc1C(=O)N1CCNCC1 [Compound I-215] | > 1000 | > 1000 |
| CN(CC1CC1)C(=O)c1ccc(OCc2cncc(-n3cc(-c4ccn(C)n4)c4c(N)ncnc43)c2)cc1N [Compound I-179] | > 1000 | > 1000 |
| Cn1ccc(-c2cn(-c3cncc(COc4ccc(CN5CCOCC5)c(N)c4)c3)c3ncnc(N)c23)n1 [Compound I-210] | 100 to 1000 | > 1000 |
| Cn1ccc(-c2cn(-c3cncc(COc4ccc5ccc(N6CC7(CC7)C6)nc5c4)c3)c3ncnc(N)c23)n1 [Compound I-203] | 10 to 100 | > 1000 |
| CC1COc2ccc(OCc3cncc(-n4cc(-c5ccn(C)n5)c5c(N)ncnc54)c3)cc2N1 (centres unmarked) [Compound I-171] | > 1000 | > 1000 |
| CN(CCS(C)(=O)=O)c1ccc2ccc(OCc3cncc(-n4cc(-c5ccn(C)n5)c5c(N)ncnc54)c3)cc2n1 [Compound I-175] | 100 to 1000 | > 1000 |
| Cn1ccc(-c2cn(-c3cncc(COC(=O)Nc4cccc(Br)n4)c3)c3ncnc(N)c23)n1 [Compound I-223] | > 1000 | > 1000 |
| Cn1ccc(-c2cn(-c3cncc(COc4ccc(C(=O)N5CCNCC5)c(N)c4)c3)c3ncnc(N)c23)n1 [Compound I-176] | 100 to 1000 | > 1000 |
| COCCN(C)C(=O)c1ccc(OCc2cncc(-n3cc(-c4ccn(C)n4)c4c(N)ncnc43)c2)cc1N [Compound I-191] | > 1000 | > 1000 |
| Cn1ccc(-c2cn(-c3cncc(COc4ccc5ccc(N6CCOCC6=O)nc5c4)c3)c3ncnc(N)c23)n1 [Compound I-214] | > 1000 | > 1000 |
| CN(C)C(=O)c1ccc(OCc2cncc(-n3cc(-c4ccn(C)n4)c4c(N)ncnc43)c2)cc1N [Compound I-177] | > 1000 | > 1000 |
| Cn1ccc(-c2cn(-c3cncc(CSc4ccc5ccc(N6CCC6)nc5c4)c3)c3ncnc(N)c23)n1 [Compound I-219, 7-[5-({[2-(azetidin-1-yl)quinolin-7-yl]sulfanyl}methyl)pyridin-3-yl]-5-(1-methyl-1H-pyrazol-3-yl)-7H-pyrrolo[2,3-d]pyrimidin-4-amine] | < 10 | > 1000 |
| Cn1ccc(-c2cn(-c3cncc(COc4ccc(-c5ncco5)c(N)c4)c3)c3ncnc(N)c23)n1 [Compound I-211] | > 1000 | > 1000 |
| Nc1ncnc2c(-c3cncc(COc4ccc5ccc(N6CCC6)nc5c4)c3)c[nH]c12 [Compound I-190] | < 10 | > 1000 |
| CN(C)CCNC(=O)c1ccc(OCc2cncc(-n3cc(Br)c4c(N)ncnc43)c2)cc1N [Compound I-218] | > 1000 | > 1000 |
